US9120749B2, “Quinoline derivatives and MELK inhibitors containing the same” (ONCOTHERAPY SCIENCE, INC., priority 2010, dated 2015)
Structures can show the parent of a compound that is named as a salt. Where two headings read alike, the source gives them in different places.

Assays:
MELK = MELK (Homo sapiens, UniProt Q14680); experiment: Kinase assay: MELK activity, phosphorylation of FITC-labeled histone H3 peptide measured by IMAP fluorescence polarization; assay type: biochemical; details: MELK kinase assay, IMAP fluorescence polarization, 50 micro-M ATP; read-out: IC50 (μM) (kinase assay)
Procedure, shortened: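 Substrate is FITC-labeled histone H3 peptide. Compounds come from a 12.5 mM DMSO stock, diluted so assay DMSO is 1%. The stop step adds threefold-volume progressive binding solution, followed by 0.5 h at room temperature and an FP read.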

HT-1197 cells = experiment: Cell-based assay: anti-proliferative activity, Cell Counting Kit-8, 72 hours (HT-1197, negative control without MELK expression); details: HT1197 cells (negative control), 72 hours
Procedure, shortened: (§1)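 IC50 values come from CCK-8 growth measurements taken 72 hours post-treatment of plated cells with test compounds. Expression of MELK across the panel was assessed through immunoblot of unfractionated lysates.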

T47D cells = experiment: Cell-based assay: anti-proliferative activity, Cell Counting Kit-8, 72 hours (T47D)
Procedure, shortened: as §1

22Rv1 cells = experiment: Cell-based assay: anti-proliferative activity, Cell Counting Kit-8, 72 hours (22Rv1)
A549 cells = experiment: Cell-based assay: anti-proliferative activity, Cell Counting Kit-8, 72 hours (A549); details: 72 hours
Procedure, shortened: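 A549 cells seeded in 96-well plates and exposed to candidate inhibitors for 72 hours. Growth measured with Cell Counting Kit-8; IC50 values calculated from the dose response.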

DU4475 cells = experiment: Cell-based assay: anti-proliferative activity, Cell Counting Kit-8, 72 hours (DU4475)

Sequence of MELK (Q14680 whole entry, looked up): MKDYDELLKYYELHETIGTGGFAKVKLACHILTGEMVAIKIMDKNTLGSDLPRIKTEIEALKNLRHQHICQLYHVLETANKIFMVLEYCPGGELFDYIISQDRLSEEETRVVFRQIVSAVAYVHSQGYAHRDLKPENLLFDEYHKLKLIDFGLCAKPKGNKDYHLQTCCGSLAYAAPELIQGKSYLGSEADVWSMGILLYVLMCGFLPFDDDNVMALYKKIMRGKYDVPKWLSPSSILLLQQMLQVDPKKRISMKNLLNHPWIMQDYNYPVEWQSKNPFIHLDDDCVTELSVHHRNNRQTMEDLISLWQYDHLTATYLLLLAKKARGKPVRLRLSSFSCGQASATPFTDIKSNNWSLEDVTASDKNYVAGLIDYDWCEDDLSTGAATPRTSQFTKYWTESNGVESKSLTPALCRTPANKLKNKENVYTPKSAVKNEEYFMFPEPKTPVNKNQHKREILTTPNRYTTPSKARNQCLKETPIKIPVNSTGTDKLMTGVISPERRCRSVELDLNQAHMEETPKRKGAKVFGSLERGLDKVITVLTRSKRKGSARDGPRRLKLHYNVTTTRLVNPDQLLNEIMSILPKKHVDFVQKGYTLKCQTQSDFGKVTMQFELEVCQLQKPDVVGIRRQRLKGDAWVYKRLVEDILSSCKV

Compound | IC50 (MELK) [µM] | IC50 (HT-1197 cells; Homo sapiens, HT1197, 72 h) [µM] | IC50 (T47D cells; Homo sapiens, T47D, 72 h) [µM] | IC50 (22Rv1 cells; Homo sapiens) [µM] | IC50 (A549 cells; Homo sapiens, A549, 72 h) [µM] | IC50 (DU4475 cells; Homo sapiens, DU-4475) [µM] | IC50 (HT-1197 cells) [µM] | IC50 (T47D cells; 72 hours) [µM] | IC50 (22Rv1 cells) [µM] | IC50 (A549 cells) [µM] | IC50 (DU4475 cells) [µM]
CC(=O)c1cnc2ccc(-c3cc(F)c(O)c(Cl)c3)cc2c1Nc1cnc(C)c(CCN2CCCC2)c1 [Example 867, 1-(6-(3-chloro-5-fluoro-4-hydroxyphenyl)-4-((6-methyl-5-(2-(pyrrolidin-1-yl)ethyl)pyridin-3-yl)amino)quinolin-3-yl)ethanone] | 0.014 | 53 | 2.9 | 4.6 | 1.6 | 1.3 | – | – | – | – | –
CC(=O)c1cnc2ccc(-c3ccc4nc[nH]c4c3)cc2c1Nc1ccc(OCCN(C)C)nc1 [Example 902, 1-(6-(1H-benzo[d]imidazol-6-yl)-4-((6-(2-(dimethylamino)ethoxy)pyridin-3-yl)amino)quinolin-3-yl) ethanone hydrochloride] | 0.042 | 12 | 3.3 | 3.1 | 2.9 | 14 | – | – | – | – | –
CC(=O)c1cnc2ccc(-c3cc(F)c(O)c(Cl)c3)cc2c1N[C@H]1CC[C@H](NC(=O)C(N)C(C)C)CC1 (stereo partly drawn) [Example 907] | 0.0047 | 3.7 | 0.016 | 0.059 | 0.18 | 0.033 | – | – | – | – | –
CS(=O)(=O)c1cnc2ccc(-c3cc(F)c(O)c(Cl)c3)cc2c1N[C@H]1CC[C@H](CN2CCCC2)CC1 [Example 891, 2-chloro-6-fluoro-4-(3-(methylsulfonyl)-4-((1R,4R)-4-(pyrrolidin-1-ylmethyl)cyclohexyl)amino)quinolin-6-yl)phenol hydrochloride] | 0.0095 | 2.4 | 0.73 | 0.92 | 1.3 | 0.46 | – | – | – | – | –
CC(=O)c1cnc2cc(F)c(-c3cc(Cl)c(O)c(Cl)c3)cc2c1N[C@H]1CC[C@H](CN(C)C)CC1 [Example 903, 1-(6-(3,5-dichloro-4-hydroxyphenyl)-4-((1R,4R)-4-((dimethylamino)methyl)cyclohexyl)amino)-7-fluoroquinolin-3-yl)ethanone hydrochloride] | 0.0017 | 1.5 | 0.55 | 0.27 | 0.36 | 0.16 | – | – | – | – | –
COc1cc(-c2ccc3ncc(C(=O)C4CCCC4)c(Nc4cccc(CCN5CCCC5)c4)c3c2)cc(Cl)c1O [Example 924, (6-(3-chloro-4-hydroxy-5-methoxy-phenyl)-4-((3-(2-(pyrrolidin-1-yl)ethyl)phenyl)amino)quinolin-3-yl) (cyclopentyl)methanone hydrochloride] | 0.018 | 3.3 | 3.2 | 3 | 3.7 | 1.8 | – | – | – | – | –
CN(C)C1CCN(c2ccc(Nc3c(S(C)(=O)=O)cnc4ccc(-c5cc(F)c(O)c(Cl)c5)cc34)cn2)C1 (stereo not drawn) [Example 889, 2-chloro-4-(4-((6-(3-(dimethylamino)pyrrolidin-1-yl)pyridin-3-yl)amino)-3-(methylsulfonyl)quinolin-6-yl)-6-fluorophenol hydrochloride] | 0.0092 | 12 | 1.5 | 1.8 | 2.5 | 1.2 | – | – | – | – | –
CC(=O)c1cnc2ccc(-c3cc(Cl)c(O)c(Cl)c3)cc2c1N[C@H]1CC[C@H](C(=O)N2CCN(C)CC2)CC1 [Example 898, 1-(6-(3,5-dichloro-4-hydroxyphenyl)-4-((1R,4R)-4-(4-methylpiperazine-1-carbonyl)cyclohexyl)amino) quinolin-3-yl)ethanone hydrochloride] | 0.0044 | 3 | 0.44 | 0.78 | 0.87 | 0.96 | – | – | – | – | –
CCC(=O)c1cnc2ccc(-c3cc(Cl)c(O)c(Cl)c3)cc2c1Nc1ccc(N2CCC[C@H](N)C2)nc1 [Example 934, (S)-1-(4-(6-(3-aminopiperidin-1-yl)pyridin-3-ylamino)-6-(3,5-dichloro-4-hydroxyphenyl)quinolin-3-yl)propan-1-one] | 0.0012 | 0.6 | 0.014 | 0.02 | 0.034 | 0.016 | – | – | – | – | –
CC(=O)c1cnc2ccc(-c3cc(Cl)c(O)c(Cl)c3)cc2c1Nc1cc(CCN2CCCC2)cnc1C [Example 897, 1-(6-(3,5-dichloro-4-hydroxyphenyl)-4-((2-methyl-5-(2-(pyrrolidin-1-yl)ethyl)pyridin-3-yl)amino)quinolin-3-yl)ethanone] | 0.021 | 71 | 4.5 | 11 | 8.5 | 8.8 | – | – | – | – | –
CC(=O)c1cnc2ccc(-c3cn[nH]c3)cc2c1N[C@H]1CC[C@H](CN(C)C)CC1 [Example 912, 1-(4-((1R,4R)-4-((dimethylamino)methyl)cyclohexyl)amino)-6-(1H-pyrazol-4-yl)quinolin-3-yl)ethanone hydrochloride] | 0.074 | 3 | 4.2 | 1.7 | 1.3 | 1.4 | – | – | – | – | –
COc1cc(-c2cc3c(N[C@H]4CC[C@H](CN5CCCC5)CC4)c(C(C)=O)cnc3cc2F)cc(Cl)c1O [Example 926, 1-(6-(3-chloro-4-hydroxy-5-methoxy-phenyl)-7-fluoro-4-((1R,4R)-4-(pyrrolidin-1-ylmethyl)cyclohexyl)amino)quinolin-3-yl)ethanone hydrochloride] | 0.0079 | 5 | 2.7 | 0.69 | 0.61 | 0.55 | – | – | – | – | –
CC(=O)c1cnc2ccc(-c3cc(F)c(O)c(Cl)c3)cc2c1N[C@H]1CC[C@H](C(=O)N(C)C)CC1 [Example 870, (1r,4r)-4-((3-acetyl-6-(3-chloro-5-fluoro-4-hydroxyphenyl)quinolin-4-yl)amino)-N,N-dimethylcyclohexanecarboxamide hydrochloride] | 0.035 | – | – | – | – | – | 3.5 | 0.53 | 2.3 | 1.6 | 2.1
CC(=O)c1cnc2cc(F)c(-c3cc(F)c(O)c(Cl)c3)cc2c1N[C@H]1CC[C@H](CN(C)C)CC1 [Example 904, 1-(6-(3-chloro-5-fluoro-4-hydroxy-phenyl)-4-((1R,4R)-4-((dimethylamino)methyl)cyclohexyl)amino)-7-fluoro-quinolin-3-yl)ethanone hydrochloride] | 0.017 | 1.6 | 0.51 | 0.33 | 0.43 | 0.26 | – | – | – | – | –
CC(=O)c1cnc2ccc(-c3cc(Cl)c(O)c(Cl)c3)cc2c1Nc1cnc(C)c(CCN2CCCC2)c1 [Example 871, 1-(6-(3,5-dichloro-4-hydroxyphenyl)-4-((6-methyl-5-(2-(pyrrolidin-1-yl)ethyl)pyridin-3-yl)amino)quinolin-3-yl)ethanone] | 0.0028 | 25 | 1.8 | 0.82 | 0.4 | 0.33 | – | – | – | – | –
CC(=O)c1cnc2ccc(-c3cc(F)c(O)c(Cl)c3)cc2c1N[C@H]1CC[C@H](NC(=O)[C@H](C)N)CC1 (stereo in doubt) [Example 878] | 0.0079 | 21 | 0.027 | 0.096 | 0.83 | 0.03 | – | – | – | – | –
CN1CCC(n2cc(Nc3c(C(=O)C(C)(C)C)cnc4ccc(-c5cc(F)c(O)c(Cl)c5)cc34)cn2)CC1 [Example 930, 1-(6-(3-chloro-5-fluoro-4-hydroxy-phenyl)-4-((1-(1-methylpiperidin-4-yl)-1H-pyrazol-4-yl)amino)quinolin-3-yl)-2,2-dimethylpropan-1-one hydrochloride] | 0.017 | 14 | 1.7 | 2.5 | 4.4 | 1.3 | – | – | – | – | –
CCN(CC)CCO[C@H]1CC[C@H](Nc2c(C(C)=O)cnc3ccc(-c4cc(F)c(O)c(Cl)c4)cc23)CC1 [Example 869, 1-(6-(3-chloro-5-fluoro-4-hydroxyphenyl)-4-((1R,4R)-4-(2-(diethylamino)ethoxy)cyclohexyl)amino)quinolin-3-yl)ethanone hydrochloride] | 0.01 | 0.7 | 0.084 | 0.32 | 0.23 | 0.26 | – | – | – | – | –
CC(=O)c1cnc2ccc(-c3ccc4nc[nH]c4c3)cc2c1Nc1cnn(C2CCN(C)CC2)c1 [Example 895, 1-(6-(1H-benzo[d]imidazol-6-yl)-4-((1-(1-methylpiperidin-4-yl)-1H-pyrazol-4-yl)amino)quinolin-3-yl)ethanone hydrochloride] | 0.065 | 9.3 | 0.94 | 2.2 | 4 | 9.1 | – | – | – | – | –
CC(=O)c1cnc2cc(F)c(-c3cc(F)c(O)c(Cl)c3)cc2c1N[C@H]1CC[C@H](CN2CCCC2)CC1 [Example 925, 1-(6-(3-chloro-5-fluoro-4-hydroxy-phenyl)-7-fluoro-4-((1R,4R)-4-(pyrrolidin-1-ylmethyl)cyclohexyl)amino)quinolin-3-yl)ethanone hydrochloride] | 0.019 | 1.5 | 0.52 | 0.27 | 0.38 | 0.27 | – | – | – | – | –
